Measured values taken from ChEMBL document CHEMBL5143554, “Discovery of phenylpyrrolidine derivatives as a novel class of retinol binding protein 4 (RBP4) reducers” (Bioorg Med Chem, 2022).

Key:
[1] = Inhibition of His-tagged mouse RBP4- biotin immobilized TTR (unknown origin) protein-protein interaction in presence of retinol by ELISA
[2] = Inhibition of His-tagged human RBP4- biotin immobilized TTR (unknown origin) protein-protein interaction in presence of retinol by ELISA
[3] = Reduction in blood RBP4 level in C57BL/6J mouse assessed as RBP4 leve in blood at 3 mg/kg, po after 4 hrs by ELISA (reference value: 100 +/- 12%); format: functional; design: scale not given: the % may be the effect or the level left
[4] = AUC in ICR mouse at 1 mg/kg, po; format: ADME, organism-based; design: dose 1 mg/kg, route po; conditions: in vivo
[5] = Reduction in blood RBP4 level in C57BL/6J mouse assessed as RBP4 leve in blood at 10 mg/kg, po after 24 hrs by ELISA (reference value: 100%); format: functional; design: scale not given: the % may be the effect or the level left
[6] = Oral bioavilability in ICR mouse at 1 mg/kg; format: ADME, organism-based; conditions: in vivo
[7] = Reduction in blood RBP4 level in C57BL/6J mouse assessed as RBP4 leve in blood at 1 mg/kg, po after 24 hrs by ELISA (reference value: 100 +/- 9.8%); format: functional; design: scale not given: the % may be the effect or the level left
[8] = Reduction in blood RBP4 level in C57BL/6J mouse assessed as RBP4 leve in blood at 1 mg/kg, po after 7 hrs by ELISA (reference value: 100 +/- 9.8%); format: functional; design: scale not given: the % may be the effect or the level left
[9] = Reduction in blood RBP4 level in C57BL/6J mouse assessed as RBP4 leve in blood at 0.3 mg/kg, po after 7 hrs by ELISA (reference value: 100 +/- 3.9%); format: functional; design: scale not given: the % may be the effect or the level left
[10] = Cmax in ICR mouse at 1 mg/kg, po; format: ADME, organism-based; design: dose 1 mg/kg, route po; conditions: in vivo
[11] = Reduction in blood RBP4 level in C57BL/6J mouse assessed as RBP4 leve in blood at 3 mg/kg, po after 7 hrs by ELISA (reference value: 100 +/- 12%); format: functional; design: scale not given: the % may be the effect or the level left
[12] = Reduction in blood RBP4 level in C57BL/6J mouse assessed as RBP4 leve in blood at 3 mg/kg, po after 24 hrs by ELISA (reference value: 100 +/- 12%); format: functional; design: scale not given: the % may be the effect or the level left
[13] = Reduction in blood RBP4 level in C57BL/6J mouse assessed as RBP4 leve in blood at 0.3 mg/kg, po after 24 hrs by ELISA (reference value: 100 +/- 3.9%); format: functional; design: scale not given: the % may be the effect or the level left
[14] = Reduction in blood RBP4 level in C57BL/6J mouse assessed as RBP4 leve in blood at 0.3 mg/kg, po after 4 hrs by ELISA (reference value: 100 +/- 3.9%); format: functional; design: scale not given: the % may be the effect or the level left
[15] = Reduction in blood RBP4 level in C57BL/6J mouse assessed as RBP4 leve in blood at 10 mg/kg, po after 7 hrs by ELISA (reference value: 100%); format: functional; design: scale not given: the % may be the effect or the level left
[16] = system: Mus musculus; assay: Reduction in blood RBP4 level in C57BL/6J mouse assessed as RBP4 leve in blood at 0.3 to 10 mg/kg, po after 4 to 24 hrs hrs by ELISA (reference value: 100%); format: functional, organism-based; conditions: dose 0.3-10 mg/kg, time 4-24 hrs, DDE = dose-dependent effect
[17] = Reduction in blood RBP4 level in C57BL/6J mouse assessed as RBP4 leve in blood at 1 mg/kg, po after 4 hrs by ELISA (reference value: 100 +/- 9.8%); format: functional; design: scale not given: the % may be the effect or the level left
[18] = Reduction in blood RBP4 level in C57BL/6J mouse assessed as RBP4 leve in blood at 10 mg/kg, po after 4 hrs by ELISA (reference value: 100%); format: functional; design: scale not given: the % may be the effect or the level left

SMILES	IC50 [1] [nM]	IC50 [2] [nM]	also measured
O=C(O)CCc1ncc(-c2cc(C(F)(F)F)cc(C(F)(F)F)c2)o1	1200	130	
O=C(O)COC1CCN(c2cccc(C(F)(F)F)c2F)C1 (racemic)	1500	240	
O=C(O)CC1CCN(c2cc(C(F)(F)F)cc(C(F)(F)F)c2)C1 (racemic)	300	42	
O=C(O)CCC1CCN(c2cc(C(F)(F)F)cc(C(F)(F)F)c2)CC1	3800	270	
O=C(O)COC1CCN(c2cc(Cl)cc(C(F)(F)F)c2)C1 (racemic)	420	96	
COc1cc(N2CCC(OCC(=O)O)C2)cc(C(F)(F)F)c1 (racemic)	870	82	
O=C(O)CO[C@H]1CCN(c2cc(C(F)(F)F)cc(C(F)(F)F)c2)C1	110	28	Activity [3]: 50.4%; AUC [4]: 22000 ng·h/mL; Activity [5]: 37.5%; bioavailability [6]: 58%; Activity [7]: 53%; Activity [8]: 42.4%; Activity [9]: 56.6%; Cmax [10]: 2910 ng/mL; Activity [11]: 41.5%; Activity [12]: 43.6%; Activity [13]: 75%; Activity [14]: 64.6%; Activity [15]: 39.6%; Activity [16]: Dde; Activity [17]: 51.6%; Activity [18]: 39.5%
O=C(O)C1CCN(c2cc(C(F)(F)F)cc(C(F)(F)F)c2)C1 (racemic)	5900	1000	
O=C(O)COC1CCN(c2cc(F)cc(C(F)(F)F)c2)C1 (racemic)	1200	190	
O=C(O)CCC1CN(c2cc(C(F)(F)F)cc(C(F)(F)F)c2)C1	740	40	
O=C(O)CO[C@@H]1CCN(c2cc(C(F)(F)F)cc(C(F)(F)F)c2)C1	130	21	AUC [4]: 17900 ng·h/mL; Activity [5]: 38.6%; bioavailability [6]: 51%; Cmax [10]: 2920 ng/mL; Activity [15]: 40.5%; Activity [18]: 42.2%
O=C(O)CCc1nc(-c2cc(C(F)(F)F)cc(C(F)(F)F)c2)co1	420	24	
O=C(O)COC1CCN(c2ccc(F)c(C(F)(F)F)c2)C1 (racemic)	1600	230	
O=C(O)CCc1cnc(-c2cc(C(F)(F)F)cc(C(F)(F)F)c2)o1	> 30000	6000	
O=C(O)COC1CCN(c2cc(C(F)(F)F)cc(C(F)(F)F)c2)C1 (racemic)	100	16	
COC(=O)CO[C@H]1CCN(c2cc(C(F)(F)F)cc(C(F)(F)F)c2)C1	200	150	
FC(F)(F)c1cc(N2CCC(OCc3nnn[nH]3)C2)cc(C(F)(F)F)c1 (racemic)	270	48	
O=C(O)COC1CCN(c2cccc(C(F)(F)F)c2)C1 (racemic)	2400	520	
O=C(O)CCC1CCN(c2cc(C(F)(F)F)cc(C(F)(F)F)c2)C1 (racemic)	220	51	
